The values that follow come from patent US20250149635A1, “SILICATE PLATFORM AS WEAKLY-COORDINATING ANIONS FOR DIVERSE ORGANOMETALLIC TRANSFORMATIONS AND ELECTROCHEMICAL APPLICATIONS” (California Institute of Technology, priority 2023, published 2025).

Series [1] can be described thus: Cyclic voltammetry of Mg deposition/stripping in DME. The conditions noted are these: for deposition overpotential: 0.25-0.26 M in DME with 10 mM Me2Mg, Pt wire WE, 25 mVs^−1; for oxidative stability: in DME, with 10 mM Me2Mg, sweep to 4.75 V. The series is classed as physicochemical. The protocol:
FIG. 14A: Cyclic voltammetry experiments of 0.26 M 1-[Mg(DME)3] with 10 mM of Me2Mg. WE: Pt wire; CE: Mg strip; RE: Mg strip; Scan rate: 25 mVs^−1; Cycling protocol: −0.8 V to 4.0 V, 100 cycles. FIG. 14B: Cycles 1, 25, 50, 75, 100. FIG. 14C: Coulombic efficiency cycles 1-100; Cyclic voltammetry experiments of 0.26 M 1-[Mg(DME)3] with 10 mM of Me2Mg.
FIG. 15A: Cyclic voltammetry experiments of 0.25 M 2-[Mg(DME)3] with 10 mM of Me2Mg. WE: Pt wire; CE: Mg strip; RE: Mg strip; Scan rate: 25 mVs^−1; Cycling protocol: −0.8 V to 3.8 V, 100 cycles; FIG. 15B: Cycles 1, 25, 50, 75, 100. FIG. 15C: Coulombic efficiency cycles 1-100; Cyclic voltammetry experiments of 0.25 M 2-[Mg(DME)3] with 10 mM of Me2Mg.
FIG. 20: Cyclic voltammetry experiments of 0.26 M 1-[Mg(DME)3] in DME.WE: Pt wire; CE: Mg strip; RE: Mg strip; Scan rate: 25 mVs^−1; Cycling protocol: −0.8 V to 4.0 V, 200 cycles.
Cyclic voltammetry experiments of 1-[Mg(DME)3] were run in an empty N2-filled glovebox fitted with a purifier system that consists of a purifier cartridge (ca. 50% activated 4 Å molecular sieves and activated Cu catalyst) and a circulator fan, no solvent or chemicals were stored in the glovebox. Electrolyte solutions were prepared in a separate glovebox by dissolving 1-[Mg(DME)3] in 500 μL of DME and stirred with a new Teflon stir bar until complete dissolution. DME and 1-[Mg(DME)3] were only used with the glovebox circulation purifier turned off after extensive (minimum 20 minutes at […] above atmospheric pressure to ensure full atmosphere exchange) purging of the glovebox atmosphere to avoid cross-contamination with other atmospheric solvents. Upon complete dissolution of the electrolyte, the electrolyte solution was sealed and transported to the electrochemistry glovebox immediately before electrochemical experiments were performed.
Mg electrodes (99.9%, MTI) were polished with a razor blade immediately before use. Pt electrodes (wire, 0.5 mm diameter, 99.995%, Thermo Scientific) were soaked in concentrated HNO3 for at least 72 hours, rinsed with deionized water at least thrice, annealed with an H2 torch, and immediately brought into the glovebox in a flame-dried 20 mL scintillation vial while hot. Cyclic voltammetry experiments of 1-[Mg(DME)3] were performed in glass cells with 0.5 mL of electrolyte. A Pt wire served as the working electrode (WE), and Mg foils were the counter and reference electrodes (CE and RE). Experiments of 1-[Mg(DME)3] were conducted on either a Biologic SP150 potentiostat or a Biologic VSP-300 potentiostat.

A short description of series [2]: Cyclic and linear sweep voltammetry of 0.1 M tetra-n-butylammonium salts in MeCN (electrochemical stability window). The series is classed as physicochemical. From the text: FIG. 12: Cyclic voltammetry and linear sweep voltammetry experiments of 0.1 M 1-[Bu4N] and [Bu4N][PF6] in MeCN; Current shown were normalized to the highest current in each experiment; FIG. 12A: Cyclic voltammogram of 1-[Bu4N] in MeCN; WE: Glassy carbon; CE: Pt wire; RE: Ag wire; scan rate=100 mVs^−1; FIGS. 12B and 12C: Linear sweep voltammograms of 0.1 M 1-[Bu4N] and [Bu4N][PF6] in MeCN; WE: Glassy carbon; CE: Pt wire; RE: Ag wire; scan rate=50 mVs^−1.
Linear sweep voltammetry experiments of 1-[Bu4N] and [Bu4N][PF6] were performed under an N2 atmosphere using a Pine Instrument Company AFCBP1 bipotentiostat using the AfterMath software package. Linear sweep voltammograms were recorded in the glovebox at 25° C. with an auxiliary Pt-coil counter electrode, Ag-wire reference electrode, and 3.0 mm glassy carbon working electrode (BASI). The electrolyte solution was 0.1 M of the corresponding tetra-n-butylammonium salt in MeCN. All reported values are referenced to an internal ferrocene/ferrocenium couple.

For series [3] the following is noted: calculated, literature ref. 47; cited from earlier work.
A short description of series [4]: C2H4/CO copolymerization trials with cationic Pd catalyst. The protocol: In a N2 glovebox, Pd catalyst (10 μmol) was dissolved in toluene (10 mL) was transferred to a Fisher-Porter vessel. The reactor was removed from the glovebox and connected to a C2H4/CO gas feed. The N2 atmosphere was replaced with a 1:1 mixture of C2H4/CO (flow rate 300 sccm for each gas) by pressurizing the vessel to 100 psi and venting 3×. After pressurizing to 100 psi, polymerization was run for 3 hr at RT. The reaction was quenched upon exposure to air, and the polymer was precipitated by stirring with acidic methanol (0.6 mL HCl/10 mL MeOH). The polymer was collected and dried under vacuum overnight.
NMRs were recorded in a mixture of 1, 1, 1, 3, 3, 3-hexafluoro-2-propanol and C6D6 (4:1) at RT.

Series [5] in a line: Solubility determination by 19F NMR with fluorobenzene internal standard.
Protocol: Each sample was filtered, and 600 μL was transferred to a new vial. Fluorobenzene (5 μL) was added as an internal standard to the filtered solution and mixed thoroughly via pipette.
[6] abbreviates: 0.1 M Bu4N salt in MeCN, glassy carbon WE.
The mark [7] stands for this setting: 10 μmol Pd catalyst in toluene, 100 psi 1:1 C2H4/CO, 3 hr at RT.

Turning to `COCCOC.COCCOC.COCCOC.C[Si-]12(OC(C(F)(F)F)(C(F)(F)F)C(C(F)(F)F)(C(F)(F)F)O1)OC(C(F)(F)F)(C(F)(F)F)C(C(F)(F)F)(C(F)(F)F)O2.C[Si-]12(OC(C(F)(F)F)(C(F)(F)F)C(C(F)(F)F)(C(F)(F)F)O1)OC(C(F)(F)F)(C(F)(F)F)C(C(F)(F)F)(C(F)(F)F)O2.[Mg+2]` [1-[Mg(DME)3], [Mg(DME)3][^MeSi^F24]2], in series [1], the deposition overpotential result is recorded as “ca. −420 mV vs. Mg/Mg^2+”. Also, in series [1] (0.26 M in DME, absence of Me2Mg), the “reductive overpotential, stabilized over continuous cycling” value was “ca. 400 mV”. Also, the “coulombic efficiency, stabilized with cycling” value in series [1] (0.26 M in DME, absence of Me2Mg, −0.8 to 2.0 V vs. Mg/Mg^2+) is recorded as “ca. 96%”.
Consider `F[P-](F)(F)(F)(F)F` [PF6^−, reference compound], for which, in series [2] (setting [6]), the reductive stability result is reported as “ca. −3.1 V vs. Fc/Fc^+”.
For the compound `[F][Sb]([F])([F])([F])[F]` [SbF5], in series [3], the fluoride affinity was 120 kcal/mol.
Consider `CC#N.FC(F)(F)c1cc([B-](c2cc(C(F)(F)F)cc(C(F)(F)F)c2)(c2cc(C(F)(F)F)cc(C(F)(F)F)c2)c2cc(C(F)(F)F)cc(C(F)(F)F)c2)cc(C(F)(F)F)c1.[CH3][Pd+]1[PH](c2ccccc2)(c2ccccc2)CC[PH]1(c1ccccc1)c1ccccc1` [[Pd(dppe)(NCMe)Me]^+[BAr^F24]^−, [Pd(dppe)(NCMe)Me][BAr^F24], reference compound], for which, in series [4] (setting [7]), the Activity came to 2.28 g/mmol/h and the “Polymer Yield” value is given as 68.6. In series [4] (100 psi of C2H4/CO), this compound registered an Activity of 2.3 g/mmol/h.
For `C[Si-]12(OC(C(F)(F)F)(C(F)(F)F)C(C(F)(F)F)(C(F)(F)F)O1)OC(C(F)(F)F)(C(F)(F)F)C(C(F)(F)F)(C(F)(F)F)O2` [[^MeSi^F24]], in series [2] (setting [6]), the “oxidative stability (stable up to)” value is given as “up to 4.5 V vs. Fc/Fc^+” and the reductive stability entry is given as “ca. −3.1 V vs. Fc/Fc^+”. Moreover, the electrochemical stability window in series [2] (in MeCN) is on record as 7.5 V. Moreover, the “oxidative stability surpassing that of PF6^−” value in series [2] (in MeCN, versus [Bu4N][PF6]) is recorded as “ca. 1 V”. Moreover, the oxidative stability entry in series [1] is given as “ca. 4.2 V vs. Mg/Mg^2+”.
In the case of (MeCN)Si(O2C6F12)2, the fluoride affinity in series [3] is 113 kcal/mol.
[Bu4N][^MeSi^F24] [1-[Bu4N]]: the electrochemical stability window result in series [2] (in MeCN) is listed as “ca. 7.5 V”.
For [K][^tBu2ArSi^F24] [3-[K]], the “solubility in CH2Cl2 (in words)” value in series [5] (CH2Cl2) is “high solubility”. In series [5] (in benzene, stirred 16 hr, filtered, 19F NMR), the solubility in benzene came out at 100 µM. In series [5] (in dichloromethane, 19F NMR), the solubility in dichloromethane amounted to 400 µM.
With [Mg(DME)3][^PhSi^F24]2 [2-[Mg(DME)3]], in series [1], the deposition overpotential result was “ca. −350 mV vs. Mg/Mg^2+” and the oxidative stability result is on record as “ca. 4.05 V vs. Mg/Mg^2+”.
Take “[Pd(dppe)(NCMe)Me][^tBu2ArSi^F24] [3-[Pd(dppe)(NCMe)Me]]”: the Activity in series [4] (setting [7]) is 1.67 g/mmol/h; in series [4] (100 psi of C2H4/CO), 1.7 g/mmol/h. Also, the “Polymer Yield” value in series [4] (setting [7]) stood at 50.2.
With [Pd(dppe)(NCMe)Me]^+[^MeSi^F24], in series [4] (setting [7]), the Activity turned out to be 1.06 g/mmol/h and the “Polymer Yield” value came out at 31.9.
